In US20040062729A1, “Photoprotective sunscreen compositions comprising 1,3,5-triazine compounds and triesters of benenetricarboxylic acids” (SOCIETE L'OREAL S.A., priority 2001, published 2004):

Conditions: 5 g 2,4-bis{[4-2-ethylhexyl-oxy)]-2-hydroxy]phenyl}-6-(4-methoxyphenyl)-1,3,5-triazine in 20 g solvent oil, heated to 83° C., cooled
Procedure: The solubilization time of 2,4-bis{[4-2-ethylhexyl-oxy)]-2-hydroxy]phenyl}-6-(4-methoxyphenyl)-1,3,5-triazine (screening agent) in various solvents is determined by means of the following test:
at room temperature, 20 g of solvent are added to 5 g of screening agent,
the mixture thus obtained is heated to 83° C. by means of a water bath,
after cooling, the possible presence of crystals is then observed under a microscope, between a slide and glass coverslips, in polarized light.

Compound	Presence of crystals, storage in the cold (+4° C.) for 4 days	Presence of crystals, storage at room temperature for 4 days
CCCCCCCCCCCCCCCC(=O)OCC(CC)CCCC (stereo not shown) [2-Ethylhexyl palmitate]	Crystals	Crystals
CO[C@H]1CO[C@H]2[C@@H]1OC[C@H]2OC [Dimethyl isosorbide]	Crystals	Crystals
C[Si]1(C)O[Si](C)(C)O[Si](C)(C)O[Si](C)(C)O[Si](C)(C)O1 [Cyclopentadimethylsiloxane]	Crystals	Crystals
CCCCCCCCCCC(CO)CCCCCCCC (stereo not shown) [2-Octyldodecanol]	Crystals	Crystals
CC(C)CCCCCCOC(=O)CCCCCC(C)C [Isononyl isononanoate]	Crystals	Crystals
CCCCCCCCCCCCCC(C)C [Isohexadecane]	Crystals	Crystals/Cloudy
Tridecyl trimellitate	Absence of	Absence of
CCCCCCCC/C=C\CCCCCCCCO [Oleyl alcohol]	Crystals	Crystals
CCCCC(CC)C(=O)OCC(C)(C)COC(=O)C(CC)CCCC (stereo not shown) [Neopentyl glycol di-2-ethylhexanoate]	Crystals	Crystals
CC(C)CCCCCCCOC(=O)C(C)(C)C [Isodecyl neopentanoate]	Crystals	Crystals
Oxypropylenated stearyl alcohol	Crystals	Crystals
CCCCCCCCOC(=O)CC(O)C(=O)OCCCCCCCC (stereo not shown) [Dioctyl malate]	Crystals	Crystals
Oxypropylenated butanediol (10 PO)	Crystals	Crystals
CCCCCCCCC(CCCCCC)C(=O)O (stereo not shown) [2-Hexyldecanoic acid]	Crystals	Crystals
CCCCC(CC)COC(=O)CCCCC(=O)OCC(CC)CCCC (stereo not shown) [Di(2-ethylhexyl) adipate]	Crystals	Crystals
CC(CC(=O)OCC(COC(=O)CC(C)CC(C)(C)C)OC(=O)CC(C)CC(C)(C)C)CC(C)(C)C (stereo not shown) [Glyceryl triisononanoate]	Crystals	Crystals
CCCCCCCCC(CO)CCCCCC (stereo not shown) [Isocetyl alcohol, 2-hexyldecanol]	Crystals	Crystals
